Several values for one entry are separate records, joined by “and”; a condition that tells them apart may be missing. Equal values may be shown once.
Experiments:
[1] = test system: MCF-7 (a breast cancer cell line); assay type: cell-based; conditions: 6 days incubation
[2] = test system: KYSE520 (human esophageal cancer xenograft model); test: In vivo antitumor efficacy, KYSE520 xenograft model; design: species or system BALB/c nude mice; conditions: for Tumor Volume / Tumor Weights on Day 35: mean ± SEM; for T/Cweight / TGI: day 35 vs control group G1; for T/C: tumor volume on day 35 vs control group G1
[3] = test system: HPAFII (human pancreatic cancer xenograft model); test: In vivo antitumor efficacy, HPAFII xenograft model; design: species or system CB17 SCID mice; conditions: for Tumor Volume / Tumor Weights on Day 28: mean ± SEM; for T/Cweight / TGI: day 28 vs control group G1; for T/C: tumor volume on day 28 vs control group G1
[4] = one mouse in G5 (3 mg/kg i.v. QW x 3 weeks); day 18 after start of treatment; autopsied, no abnormalities found
Description: Animal body weights were regularly monitored as an indirect measure of toxicity. […]

## Tivdak: ADC in which MMAE is conjugated to Tisotumab; purchased from Jupiter Research Service LLC; DAR 4
[1]
  IC50: 442 nM
[2]; 1 mg/kg i.v. QW x 3 weeks, day 0
  Tumor Volume: 175 ± 8 mm^3
[2]; 1 mg/kg i.v. QW x 3 weeks, day 4
  Tumor Volume: 279 ± 20 mm^3
[2]; 1 mg/kg i.v. QW x 3 weeks, day 7
  Tumor Volume: 360 ± 29 mm^3
[2]; 1 mg/kg i.v. QW x 3 weeks, day 11
  Tumor Volume: 489 ± 37 mm^3
[2]; 1 mg/kg i.v. QW x 3 weeks, day 14
  Tumor Volume: 672 ± 51 mm^3
[2]; 1 mg/kg i.v. QW x 3 weeks, day 18
  Tumor Volume: 771 ± 64 mm^3
[2]; 1 mg/kg i.v. QW x 3 weeks, day 21
  Tumor Volume: 865 ± 75 mm^3
[2]; 1 mg/kg i.v. QW x 3 weeks, day 25
  Tumor Volume: 1,168 ± 101 mm^3
[2]; 1 mg/kg i.v. QW x 3 weeks, day 28
  Tumor Volume: 1,497 ± 121 mm^3
[2]; 1 mg/kg i.v. QW x 3 weeks, day 32
  Tumor Volume: 1,634 ± 126 mm^3
[2]; 1 mg/kg i.v. QW x 3 weeks, day 35
  Tumor Volume: 1,893 ± 166 mm^3
[2]; 1 mg/kg i.v. QW x 3 weeks
  T/Cweight: 86.67%
  TGI: 13.03%
  Tumor Weights on Day 35: 1.869 ± 0.138 g
  T/C: 88.03%
[2]; 3 mg/kg i.v. QW x 3 weeks, day 0
  Tumor Volume: 175 ± 8 mm^3
[2]; 3 mg/kg i.v. QW x 3 weeks, day 4
  Tumor Volume: 241 ± 23 mm^3
[2]; 3 mg/kg i.v. QW x 3 weeks, day 7
  Tumor Volume: 279 ± 24 mm^3
[2]; 3 mg/kg i.v. QW x 3 weeks, day 11
  Tumor Volume: 281 ± 31 mm^3
[2]; 3 mg/kg i.v. QW x 3 weeks, day 14
  Tumor Volume: 270 ± 31 mm^3
[2]; 3 mg/kg i.v. QW x 3 weeks, day 18
  Tumor Volume: 174 ± 17 mm^3
[2]; 3 mg/kg i.v. QW x 3 weeks, day 21
  Tumor Volume: 154 ± 17 (n = 9)^c mm^3
[2]; 3 mg/kg i.v. QW x 3 weeks, day 25
  Tumor Volume: 142 ± 15(n = 9) mm^3
[2]; 3 mg/kg i.v. QW x 3 weeks, day 28
  Tumor Volume: 129 ± 16 (n = 9) mm^3
[2]; 3 mg/kg i.v. QW x 3 weeks, day 32
  Tumor Volume: 115 ± 16(n = 9) mm^3
[2]; 3 mg/kg i.v. QW x 3 weeks, day 35
  Tumor Volume: 99 mm^3 and 99 ± 14 (n = 9) mm^3 and 99 ± 14 mm^3
[2]; 3 mg/kg i.v. QW x 3 weeks
  T/Cweight: 4.12%
  TGI: 103.89%
  Tumor Weights on Day 35: 0.089 ± 0.013 g
  T/C: 4.58%
[2]; 10 mg/kg i.v. QW x 3 weeks, day 0
  Tumor Volume: 175 ± 8 mm^3
[2]; 10 mg/kg i.v. QW x 3 weeks, day 4
  Tumor Volume: 243 ± 22 mm^3
[2]; 10 mg/kg i.v. QW x 3 weeks, day 7
  Tumor Volume: 259 ± 24 mm^3
[2]; 10 mg/kg i.v. QW x 3 weeks, day 11
  Tumor Volume: 234 ± 23 mm^3
[2]; 10 mg/kg i.v. QW x 3 weeks, day 14
  Tumor Volume: 196 ± 16 mm^3
[2]; 10 mg/kg i.v. QW x 3 weeks, day 18
  Tumor Volume: 122 ± 11 mm^3
[2]; 10 mg/kg i.v. QW x 3 weeks, day 21
  Tumor Volume: 101 ± 7 mm^3
[2]; 10 mg/kg i.v. QW x 3 weeks, day 25
  Tumor Volume: 88 ± 7 mm^3
[2]; 10 mg/kg i.v. QW x 3 weeks, day 28
  Tumor Volume: 69 ± 5 mm^3
[2]; 10 mg/kg i.v. QW x 3 weeks, day 32
  Tumor Volume: 58 ± 5 mm^3
[2]; 10 mg/kg i.v. QW x 3 weeks, day 35
  Tumor Volume: 45 mm^3 and 45 ± 6 mm^3
[2]; 10 mg/kg i.v. QW x 3 weeks
  T/Cweight: 1.93%
  TGI: 106.62%
  Tumor Weights on Day 35: 0.042 ± 0.004 g
  T/C: 2.08%
[3]; 0.3 mg/kg i.v. QW × 3, day 0
  Tumor Volume: 235 ± 17 mm^3
[3]; 0.3 mg/kg i.v. QW × 3, day 4
  Tumor Volume: 313 ± 34 mm^3
[3]; 0.3 mg/kg i.v. QW × 3, day 7
  Tumor Volume: 361 ± 49 mm^3
[3]; 0.3 mg/kg i.v. QW × 3, day 11
  Tumor Volume: 476 ± 64 mm^3
[3]; 0.3 mg/kg i.v. QW × 3, day 14
  Tumor Volume: 576 ± 69 mm^3
[3]; 0.3 mg/kg i.v. QW × 3, day 18
  Tumor Volume: 737 ± 91 mm^3
[3]; 0.3 mg/kg i.v. QW × 3, day 21
  Tumor Volume: 934 ± 113 mm^3
[3]; 0.3 mg/kg i.v. QW × 3, day 25
  Tumor Volume: 1,219 ± 141 mm^3
[3]; 0.3 mg/kg i.v. QW × 3, day 28
  Tumor Volume: 1,607 ± 144 mm^3
[3]; 0.3 mg/kg i.v. QW × 3
  T/Cweight: 68.36%
  TGI: 35.24%
  Tumor Weights on Day 28: 1.461 ± 0.146 g
  T/C: 68.29%
[3]; 1 mg/kg i.v. QW × 1, day 0
  Tumor Volume: 235 ± 17 mm^3
[3]; 1 mg/kg i.v. QW × 1, day 4
  Tumor Volume: 217 ± 16 mm^3
[3]; 1 mg/kg i.v. QW × 1, day 7
  Tumor Volume: 141 ± 16 mm^3
[3]; 1 mg/kg i.v. QW × 1, day 11
  Tumor Volume: 87 ± 9 mm^3
[3]; 1 mg/kg i.v. QW × 1, day 14
  Tumor Volume: 103 ± 14 mm^3
[3]; 1 mg/kg i.v. QW × 1, day 18
  Tumor Volume: 161 ± 31 mm^3
[3]; 1 mg/kg i.v. QW × 1, day 21
  Tumor Volume: 213 ± 34 mm^3
[3]; 1 mg/kg i.v. QW × 1, day 25
  Tumor Volume: 344 ± 49 mm^3
[3]; 1 mg/kg i.v. QW × 1, day 28
  Tumor Volume: 486 mm^3 and 486 ± 73 mm^3
[3]; 1 mg/kg i.v. QW × 1
  T/Cweight: 21.23%
  TGI: 88.15%
  Tumor Weights on Day 28: 0.454 ± 0.088 g
  T/C: 20.67%
[3]; 1 mg/kg i.v. QW × 3, day 0
  Tumor Volume: 235 ± 17 mm^3
[3]; 1 mg/kg i.v. QW × 3, day 4
  Tumor Volume: 190 ± 12 mm^3
[3]; 1 mg/kg i.v. QW × 3, day 7
  Tumor Volume: 124 ± 11 mm^3
[3]; 1 mg/kg i.v. QW × 3, day 11
  Tumor Volume: 85 ± 9 mm^3
[3]; 1 mg/kg i.v. QW × 3, day 14
  Tumor Volume: 70 ± 8 mm^3
[3]; 1 mg/kg i.v. QW × 3, day 18
  Tumor Volume: 54 ± 6 mm^3
[3]; 1 mg/kg i.v. QW × 3, day 21
  Tumor Volume: 40 ± 4 mm^3
[3]; 1 mg/kg i.v. QW × 3, day 25
  Tumor Volume: 33 ± 4 mm^3
[3]; 1 mg/kg i.v. QW × 3, day 28
  Tumor Volume: 26 mm^3 and 26 ± 3 mm^3
[3]; 1 mg/kg i.v. QW × 3
  T/Cweight: 1.03%
  TGI: 109.91%
  Tumor Weights on Day 28: 0.022 ± 0.003 g
  T/C: 1.09%
[3]; 3 mg/kg i.v. QW × 1, day 0
  Tumor Volume: 235 ± 17 mm^3
[3]; 3 mg/kg i.v. QW × 1, day 4
  Tumor Volume: 216 ± 19 mm^3
[3]; 3 mg/kg i.v. QW × 1, day 7
  Tumor Volume: 128 ± 10 mm^3
[3]; 3 mg/kg i.v. QW × 1, day 11
  Tumor Volume: 69 ± 8 mm^3
[3]; 3 mg/kg i.v. QW × 1, day 14
  Tumor Volume: 56 ± 4 mm^3
[3]; 3 mg/kg i.v. QW × 1, day 18
  Tumor Volume: 39 ± 3 mm^3
[3]; 3 mg/kg i.v. QW × 1, day 21
  Tumor Volume: 30 ± 2 mm^3
[3]; 3 mg/kg i.v. QW × 1, day 25
  Tumor Volume: 26 ± 2 mm^3
[3]; 3 mg/kg i.v. QW × 1, day 28
  Tumor Volume: 19 mm^3 and 19 ± 1 mm^3
[3]; 3 mg/kg i.v. QW × 1
  T/Cweight: 0.54%
  TGI: 110.22%
  Tumor Weights on Day 28: 0.012 ± 0.001 g
  T/C: 0.80%
[4]
  body weight loss: more than 20%
